IC50, Activity and viability data for 36 compounds are collected here from ChEMBL document CHEMBL3994635, “Inhibition of LPS-stimulated ROS production by fluorinated and hydroxylated chalcones in RAW 264.7 macrophages with structure-activity relationship study” (Bioorg Med Chem Lett, 2017).

SMILES strings stand for the structures. Some results are limits rather than exact numbers.

A word on the IC50: it is the concentration that inhibits the measured activity by half. A lower IC50 goes with greater potency in that assay.

The test system of data set [1] is RAW264.7. Put plainly: Inhibition of LPS-stimulated ROS production in mouse RAW264.7 cells preincubated for 1 hr followed by LPS stimulation for 24 hrs measured after 30 mins by CMH2DCFDA probe-based fluorescence assay. It is filed as functional, cell-based.
Data set [2] concerns RAW264.7. Put plainly: Cytotoxicity in mouse RAW264.7 cells assessed as cell viability after 24 hrs by MTS assay. It is filed as cell-based. The note with it: raw264.7, 24 h.
The nature of data set [3]: Cytotoxicity in mouse RAW264.7 cells assessed as cell viability at 1 uM after 24 hrs by MTS assay. It is filed as cell-based. The conditions noted are these: read-out: Activity. For orientation: Tetrazolium assays rely on reduction of a dye to a coloured formazan, in cell work by metabolically active cells.
Data set [4] has as its system RAW264.7. Put plainly: Inhibition of LPS-stimulated ROS production in mouse RAW264.7 cells after 22 hrs by C-400 fluorescent dye-based assay. It is filed as functional, cell-based. The note with it: RAW264.7, 22 h.

With `O=C(/C=C/c1ccccc1C(F)(F)F)c1ccccc1`, the 50% inhibitory concentration (IC50) in the data set with RAW264.7 [1] is over 10 µM. For the same compound, the Activity entry in the data set on RAW264.7 [2] was “Non-Toxic”.
On the same counts, the results for `O=C(/C=C/c1cccc(C(F)(F)F)c1)c1ccccc1` are over 10 µM and “Non-Toxic”.
The matching figures for `O=C(/C=C/c1ccc(C(F)(F)F)cc1)c1ccccc1`: over 10 µM and “Non-Toxic”.
`O=C(/C=C/c1ccc(F)cc1)c1ccccc1O`: in the data set with RAW264.7 [1], the IC50 is over 10 µM. The Activity result in the data set on RAW264.7 [2] is on record as “Non-Toxic”.
As for `O=C(/C=C/c1ccccc1C(F)(F)F)c1ccccc1O`, the viability at 24 h, 1 µM in data set [3] was under 90%.
Consider `O=C(/C=C/c1ccccc1F)c1ccccc1O`, for which the IC50 in the data set with RAW264.7 [1] was over 10 µM. Besides, the Activity entry in the data set with RAW264.7 [2] is recorded as “Non-Toxic”.
The matching figures for `O=C(/C=C/c1cccc(F)c1)c1ccccc1O`: over 10 µM and “Non-Toxic”.
The compound `O=C(/C=C/c1ccc(C(F)(F)F)cc1)c1ccccc1O` yielded an IC50 in the data set on RAW264.7 [1] of over 10 µM. The Activity entry in the data set on RAW264.7 [2] is “Non-Toxic”.
With `O=C(/C=C/c1ccccc1C(F)(F)F)c1ccc(O)cc1`, the IC50 with RAW264.7 [1] is over 10 µM. For the same compound, in the data set with RAW264.7 [2], the Activity result is “Non-Toxic”.
The matching figures for `O=C(/C=C/c1cccc(F)c1)c1cccc(O)c1`: over 10 µM and “Non-Toxic”.
On the same counts, the results for `O=C(/C=C/c1ccccc1OC(F)(F)F)c1cccc(O)c1` are 1.61 µM and “Non-Toxic”.
In turn, `O=C(/C=C/c1ccc(OC(F)(F)F)cc1)c1cccc(O)c1` showed an IC50 in the data set on RAW264.7 [1] of over 10 µM. Besides, in the data set on RAW264.7 [2], the Activity entry is reported as “Non-Toxic”.
The matching figures for `O=C(/C=C/c1cccc(F)c1)c1ccc(O)cc1`: 9.15 µM and “Non-Toxic”.
In the case of `O=C(/C=C/c1cccc(OC(F)(F)F)c1)c1ccccc1O`, in data set [3], the viability at 24 h, 1 µM was under 90%.
For `O=C(/C=C/c1cccc(C(F)(F)F)c1)c1ccccc1O`, the viability at 24 h, 1 µM in data set [3] is under 90%.
In the data set on RAW264.7 [1], `O=C(/C=C/c1ccccc1OC(F)(F)F)c1ccccc1` returned an IC50 of over 10 µM. In addition, the Activity entry in the data set on RAW264.7 [2] is “Non-Toxic”.
On the same counts, the results for `O=C(/C=C/c1ccccc1F)c1cccc(O)c1` are over 10 µM and “Non-Toxic”.
`O=C(/C=C/c1ccc(C(F)(F)F)cc1)c1cccc(O)c1` displayed an IC50 in the data set on RAW264.7 [1] of over 10 µM. Further, the Activity entry in the data set with RAW264.7 [2] is recorded as “Non-Toxic”.
The matching figures for `O=C(/C=C/c1ccccc1OC(F)(F)F)c1ccc(O)cc1`: 1.34 µM and “Non-Toxic”.
The matching figures for `O=C(/C=C/c1cccc(C(F)(F)F)c1)c1ccc(O)cc1`: 1.44 µM and “Non-Toxic”.
The matching figures for `O=C(/C=C/c1ccccc1F)c1ccccc1`: over 10 µM and “Non-Toxic”.
In the data set with RAW264.7 [1], `O=C(/C=C/c1ccccc1F)c1ccc(O)cc1` came in with an IC50 of over 10 µM. In the data set with RAW264.7 [2], the Activity entry is “Non-Toxic”.
`O=C(/C=C/c1ccc(OC(F)(F)F)cc1)c1ccc(O)cc1` returned an IC50 in the data set with RAW264.7 [1] of over 10 µM. Also, in the data set on RAW264.7 [2], the Activity entry is “Non-Toxic”.
Consider `O=C(/C=C/c1ccccc1OC(F)(F)F)c1ccccc1O`, for which the viability at 24 h, 1 µM in data set [3] is under 90%.
In the data set with RAW264.7 [1], `O=C(/C=C/c1ccc(OC(F)(F)F)cc1)c1ccccc1` had an IC50 of over 10 µM. Besides, the Activity result in the data set on RAW264.7 [2] is “Non-Toxic”.
On to `O=C(/C=C/c1cccc(C(F)(F)F)c1)c1cccc(O)c1`, for which the viability at 24 h, 1 µM in data set [3] is under 90%.
The compound `O=C(/C=C/c1ccc(F)cc1)c1cccc(O)c1` had an IC50 in the data set on RAW264.7 [1] of over 10 µM. The Activity result in the data set with RAW264.7 [2] is reported as “Non-Toxic”.
On the same counts, the results for `O=C(/C=C/c1cccc(OC(F)(F)F)c1)c1cccc(O)c1` are over 10 µM and “Non-Toxic”.
The matching figures for `O=C(/C=C/c1cccc(F)c1)c1ccccc1`: over 10 µM and “Non-Toxic”.
For `O=C(/C=C/c1cccc(OC(F)(F)F)c1)c1ccccc1`, the IC50 in the data set on RAW264.7 [1] is over 10 µM. The Activity result in the data set with RAW264.7 [2] is reported as “Non-Toxic”.
On the same counts, the results for `O=C(/C=C/c1cccc(OC(F)(F)F)c1)c1ccc(O)cc1` are over 10 µM and “Non-Toxic”.
On the same counts, the results for `O=C(/C=C/c1ccccc1C(F)(F)F)c1cccc(O)c1` are over 10 µM and “Non-Toxic”.
Compound `O=C(/C=C/c1ccc(OC(F)(F)F)cc1)c1ccccc1O` showed an IC50 in the data set on RAW264.7 [1] of over 10 µM. The Activity result in the data set with RAW264.7 [2] is “Non-Toxic”.
`O=C(/C=C/c1ccc(C(F)(F)F)cc1)c1ccc(O)cc1` came in with an IC50 with RAW264.7 [1] of over 10 µM. The Activity entry with RAW264.7 [2] is recorded as “Non-Toxic”.
On to `O=C(/C=C/c1ccc(F)cc1)c1ccc(O)cc1`, for which, in the data set with RAW264.7 [1], the IC50 is over 10 µM. For the same compound, in the data set with RAW264.7 [2], the Activity entry was “Non-Toxic”.
In turn, `COc1cc(-c2[o+]c3cc(O)cc(O)c3cc2O)cc(OC)c1O` [MALVIDIN CHLORIDE] showed an IC50 in the data set with RAW264.7 [4] of 9 µM.
